Counter-ions that a name gives are not always drawn.
Legend:
Format in all cases: biochemical
stromelysin (HSLN) = stromelysin (HSLN) (Homo sapiens, UniProt P08254); assay: MCA fluorogenic enzyme assay, competitive inhibition analysis (Ki,app), stromelysin; conditions: Ki,app; MCA peptide substrate, 37° C., pH 7.5; read-out: Enzyme Inhibition Constants (K1) HSLN
gelatinase A (HG72kD) = target: T1, gelatinase A (HG72kD) (Homo sapiens, UniProt P08253); assay: MCA fluorogenic enzyme assay, competitive inhibition analysis (Ki,app), gelatinase A; conditions: MCA peptide substrate, 37° C., pH 7.5, read-out: Enzyme Inhibition Constants (K1) HG72kD
T1 sequence (P08253 110-660): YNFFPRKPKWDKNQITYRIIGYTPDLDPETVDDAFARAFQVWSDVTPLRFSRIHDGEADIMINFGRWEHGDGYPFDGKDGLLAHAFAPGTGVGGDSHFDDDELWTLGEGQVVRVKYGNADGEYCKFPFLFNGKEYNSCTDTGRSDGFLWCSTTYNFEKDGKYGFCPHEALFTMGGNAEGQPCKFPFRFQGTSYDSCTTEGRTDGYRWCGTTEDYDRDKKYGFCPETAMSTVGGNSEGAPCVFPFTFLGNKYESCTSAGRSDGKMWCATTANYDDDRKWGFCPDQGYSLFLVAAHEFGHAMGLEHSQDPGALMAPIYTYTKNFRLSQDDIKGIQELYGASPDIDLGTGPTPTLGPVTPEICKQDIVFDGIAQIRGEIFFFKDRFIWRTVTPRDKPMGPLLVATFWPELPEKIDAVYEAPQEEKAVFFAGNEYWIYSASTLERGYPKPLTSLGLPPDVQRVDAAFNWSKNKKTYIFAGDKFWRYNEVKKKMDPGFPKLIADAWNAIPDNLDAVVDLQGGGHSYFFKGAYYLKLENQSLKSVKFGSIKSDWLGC

Coll3 = Coll3 (Homo sapiens, UniProt P45452); assay: MCA fluorogenic enzyme assay, competitive inhibition analysis (Ki,app), Coll3; conditions: MCA peptide substrate, 37° C., pH 7.5, read-out: Enzyme Inhibition Constants (K1) Coll3
HFC = target: T2, HFC (Homo sapiens, UniProt P03956); assay: MCA fluorogenic enzyme assay, competitive inhibition analysis (Ki,app), HFC; conditions: MCA peptide substrate, 37° C., pH 7.5, read-out: Enzyme Inhibition Constants (K1) HFC
T2 sequence (P03956 100-469): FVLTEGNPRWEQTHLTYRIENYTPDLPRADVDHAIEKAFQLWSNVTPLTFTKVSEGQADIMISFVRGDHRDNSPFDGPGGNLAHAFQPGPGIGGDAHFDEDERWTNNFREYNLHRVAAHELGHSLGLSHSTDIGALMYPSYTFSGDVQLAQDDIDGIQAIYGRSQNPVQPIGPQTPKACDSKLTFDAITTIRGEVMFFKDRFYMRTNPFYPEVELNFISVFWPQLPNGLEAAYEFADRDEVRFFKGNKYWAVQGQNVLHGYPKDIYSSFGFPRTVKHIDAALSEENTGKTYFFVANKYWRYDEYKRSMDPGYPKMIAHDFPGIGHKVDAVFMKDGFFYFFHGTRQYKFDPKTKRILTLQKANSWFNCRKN

matrilysin (Matr.) = target: T3, matrilysin (Matr.) (Homo sapiens, UniProt P09237); assay: MCA fluorogenic enzyme assay, competitive inhibition analysis (Ki,app), matrilysin; conditions: MCA peptide substrate, 37° C., pH 7.5, read-out: Enzyme Inhibition Constants (K1) Matr.
T3 sequence (P09237 95-267): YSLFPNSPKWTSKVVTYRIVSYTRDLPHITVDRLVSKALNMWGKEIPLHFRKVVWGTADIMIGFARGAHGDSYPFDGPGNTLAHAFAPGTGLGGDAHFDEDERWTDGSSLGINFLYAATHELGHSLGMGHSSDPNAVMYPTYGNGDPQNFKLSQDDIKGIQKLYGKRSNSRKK
Experimental: Stromelysin enzymatic activity was measured using a modified version of a resonance energy transfer fluorogenic assay as described in FEBS, vol. 296(3), p. 263 (1992), the disclosure of which is incorporated herein by reference. The MCA-peptide substrate is shown below. The fluorescent MCA group is quenched by resonance energy transfer to the 2,4-dinitrophenyl group. Matrix metalloproteinases cleave this substrate at the Gly-Leu bond. Cleavage results in the loss of energy transfer and a large increase in fluorescence of the MCA group. [drawing 56] 7-methoxycoumarin-4-yl-acetyl-pro-leu-gly-leu-3-(2,4-dinitrophenyl)-L-2,3-diaminoproprionyl-ala-arg-NH2
The MCA assay was performed at 37° C. in buffer containing 50 mM Tricine (pH 7.5), 10 mM CaCl2, 200 mM NaCl, and 1% DMSO with the following concentrations of matrix metalloproteinases: 1.4 nM stromelyin, 0.063 nM matrilysin, and 0.030 nM gelatinase A. The concentration of MCA substrate was 10 or 20 μM in a final volume of 1.6 mL. Fluorescence data was collected with Perkin-Elmer LS-5B and LS-5B spectrofluorimeters with λexcitation=328 nm and λemission=393 nm. Spectrofluorimeters were interfaced with IBM-compatible microcomputer systems.
The Km for the MCA peptide substrate with the matrix metalloproteinases is quite high and exceeds its solubility under assay conditions. Consequently, the apparent Ki (Ki,app) was determined to describe the strength of inhibition. However, in this case, Ki,app would be essentially equal to Ki since [S]<<Km. For the determination of Ki,app, the concentration of the inhibitor was varied at a constant and low concentration of substrate and the steady-state rates of fluorescence change determined. In most cases absorptive quench due to the presence of ligand was not observed. For slow-binding inhibitors, onset of inhibition curves were collected for at least 45 minutes so that equilibrium was established. Steady-state rates of fluorescence change were obtained by fitting a curve to an equation for a single exponential decay containing a linear phase. The fitted value of the linear phase was taken as the steady-state rate. The steady-state rates were fitted to the Michaelis equation describing competitive inhibition by non-linear methods. Data resulting from tight-binding inhibition was analyzed, and Ki,app determined by fitting the data to the tight-binding equation of Morrison See (Biochem. Biophys. Acta, vol. 185, pp. 269-286 (1969)) by non-linear methods.

Sequence of stromelysin (HSLN) (P08254 100-477): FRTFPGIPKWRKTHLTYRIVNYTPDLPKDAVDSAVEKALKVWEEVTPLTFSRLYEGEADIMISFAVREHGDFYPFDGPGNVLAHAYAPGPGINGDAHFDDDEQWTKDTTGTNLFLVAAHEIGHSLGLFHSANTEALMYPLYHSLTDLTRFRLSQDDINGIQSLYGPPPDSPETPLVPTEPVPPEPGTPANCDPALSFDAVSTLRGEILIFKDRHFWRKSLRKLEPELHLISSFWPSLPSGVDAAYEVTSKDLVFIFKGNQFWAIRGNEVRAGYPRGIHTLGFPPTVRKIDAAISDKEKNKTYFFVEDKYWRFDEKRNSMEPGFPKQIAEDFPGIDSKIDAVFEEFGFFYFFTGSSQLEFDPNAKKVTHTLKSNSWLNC

CC(=O)N1CCCN(S(=O)(=O)c2ccc(Oc3ccc(F)cc3)cc2)C1C(=O)NO (racemic) [Example 22, 2(R/S)-3-acetyl-1-4-(4-fluorophenoxy)benzenesulfonyl-N-hydroxy-hexahydropyrimidine-2-carboxamide]
Ki (stromelysin (HSLN)): 4.4 nM
Ki (gelatinase A (HG72kD)): 0.077 nM
Ki (Coll3): 0.088 nM

CC1(C)[C@H](C(=O)NO)N(S(=O)(=O)c2ccc(Oc3ccncc3)cc2)CC[S@+]1[O-] [Example 19(a), 1(S), 3(S) isomer, 1(S), 3(S)-N-hydroxy-4-(4-((pyrid-4-yl)oxy)benzenesulfonyl)-2,2-dimethyl-1-oxotetrahydro-2H-1,4-thiazine-3-carboxamide]
Ki (stromelysin (HSLN)): 2.3 nM
Ki (HFC): 31 nM
Ki (gelatinase A (HG72kD)): 0.49 nM
Ki (Coll3): 0.16 nM

CCOC(=O)CN1CCN(S(=O)(=O)c2ccc(Oc3ccc(Cl)cc3)cc2)[C@@H](C(=O)NO)C1 [Example 11(c), 2(R)-N-hydroxy-1-(4-(4-chlorophenoxy)benzenesulfonyl)-4-(ethoxycarbonylmethyl)-piperazine-2-carboxamide hydrochloride]
Ki (stromelysin (HSLN)): 0.25 nM
Ki (matrilysin (Matr.)): 240 nM
Ki (HFC): 48 nM

COc1ccc(Oc2ccc(S(=O)(=O)N3CCN(S(C)(=O)=O)CC3C(=O)NO)cc2)cc1 (racemic) [Example 12(c)]
Ki (stromelysin (HSLN)): 0.19 nM
Ki (matrilysin (Matr.)): 74 nM
Ki (HFC): 16 nM

O=C(NO)C1CSCCN1S(=O)(=O)c1ccc(Oc2ccc(Br)cc2)cc1 (racemic) [Example 13(a), 3(R/S)-N-hydroxy4-(4-bromophenoxybenzenesulfonyl)-tetrahydro-2H-1,4-thiazine-3-carboxamide]
Ki (stromelysin (HSLN)): 0.333 nM
Ki (matrilysin (Matr.)): 169 nM
Ki (gelatinase A (HG72kD)): 0.04 nM

CC1(C)NC(=O)CN(S(=O)(=O)c2ccc(Oc3ccc(F)cc3)cc2)C1C(=O)NO (racemic) [Example 21, 2(R/S)-1-[4-(4-fluorophenoxy)benzenesulfonyl]-3,3-dimethyl-N-hydroxy-5-oxo-piperazine-2-carboxamide]
Ki (stromelysin (HSLN)): 0.84 nM
Ki (HFC): 5.9 nM
Ki (gelatinase A (HG72kD)): 0.066 nM
Ki (Coll3): 0.068 nM

CC1(C)[C@H](C(=O)NO)N(S(=O)(=O)c2ccc(Oc3ccncc3)cc2)CC[S@@+]1[O-] (single isomer, unassigned; isomer 1) [Example 19(a), 1(R), 3(S) isomer]
Ki (stromelysin (HSLN)): 1.4 nM
Ki (HFC): 32 nM
Ki (gelatinase A (HG72kD)): 0.094 nM
Ki (Coll3): 0.13 nM

CC(C)(C)OC(=O)N1CCN(S(=O)(=O)c2ccc(Oc3ccc(F)cc3)cc2)[C@@H](C(=O)NO)C1 [Example 9(b), 2(R)-N-hydroxy-1-(4-(4-fluorophenoxy)benzenesulfonyl)-4-(t-butoxycarbonyl)-piperazine-2-carboxamide]
Ki (stromelysin (HSLN)): 0.49 nM
Ki (matrilysin (Matr.)): 220 nM
Ki (HFC): 18 nM
Ki (gelatinase A (HG72kD)): 0.026 nM

O=C(NO)C1CSCCN1S(=O)(=O)c1ccc(Oc2ccccc2)cc1 (racemic) [Example 13(b), 3(R/S)-N-hydroxy-4-(4-phenoxybenzenesulfonyl)-tetrahydro-2H-1,4-thiazine-3-carboxamide]
Ki (stromelysin (HSLN)): 0.647 nM
Ki (matrilysin (Matr.)): 201 nM
Ki (gelatinase A (HG72kD)): 0.025 nM
Ki (Coll3): 0.029 nM

O=C1C[C@H](C(=O)NO)N(S(=O)(=O)c2ccc(Oc3ccc(F)cc3)cc2)CN1 [Example 15(b), 6(R)-(N-hydroxycarbamoyl)-1-(4-(4-fluorophenoxy)benzene-sulfonyl)-tetrahydropyrimidin-4-one]
Ki (stromelysin (HSLN)): 5.1 nM
Ki (matrilysin (Matr.)): 1840 nM
Ki (HFC): 187 nM
Ki (gelatinase A (HG72kD)): 0.152 nM

CN1CCN(S(=O)(=O)c2ccc(Oc3ccccc3)cc2)[C@@H](C(=O)NO)C1 [Example 11(b), 2(R)-N-hydroxy-1-(4-phenoxybenzenesulfonyl)-4-methyl-piperazine-2-carboxamide]
Ki (stromelysin (HSLN)): 6.3 nM
Ki (matrilysin (Matr.)): 2180 nM
Ki (gelatinase A (HG72kD)): 0.101 nM
Ki (Coll3): 0.158 nM

CNC(=O)N1CCN(S(=O)(=O)c2ccc(Oc3ccc(Cl)cc3)cc2)C(C(=O)NO)C1 (racemic) [Example 6(a), 2(R/S)-N-hydroxy-1-(4-(4-chlorophenoxy)benzenesulfonyl)-4-(N-methylcarbamoyl)-piperazine-2-carboxamide]
Ki (stromelysin (HSLN)): 0.406 nM
Ki (matrilysin (Matr.)): 109 nM
Ki (gelatinase A (HG72kD)): 0.034 nM
Ki (Coll3): 0.016 nM

— patent publication US6849732B2, “Metalloproteinase inhibitors, pharmaceutical compositions containing them and their pharmaceutical uses, and methods and intermediates useful for their preparation” (Agouron Pharmaceuticals, Inc., priority 1995, dated 2005)
